Where a SMILES comes first, the peptide text is derived from it. [ ]: non-standard residue; d: D form. The star is where a group is joined. NHCH2CH2OH = OCCN*; For = O=C*
Assays:
[1] = test system: Streptococcus pyogenes SSI-9; experiment: Antibacterial activity assay of bead-derived peptides (three concentrations); assay type: cell-based; set-up: key: +++: inhibition by the 640-fold diluted peptide solution; ++: inhibition by the 160-fold diluted solution; +: inhibition by the 40-fold diluted solution; -: no inhibition; conditions: S. pyogenes, bead-derived peptide solution, three concentrations
How it was run: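 First, each peptide stock was diluted 4- and 16-fold in DMSO; next, the three solutions were mixed with S. pyogenes SSI-9 suspension (2 × 10^5 CFU) in cation-adjusted Mueller Hinton Broth plus 5% laked horse blood; finally, plates stood 18 h at 37 °C before checking for grown-cell precipitation.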

[2] = cell viability/%
How it was run: (§1)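 Peptide stocks diluted 250× in growth medium; P388 cells 1 × 10^4 cells/mL final; 37 °C, 5% CO2, 92 h. WST-1 + 1-methoxy PMS, 4 h, A415. Output: % viability.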

[3] = H+/Na+ transport assay of bead-derived peptides (one-point); assay type: biochemical; set-up: key: relative activity; mean of two control wells = 1.00; conditions: bead-derived peptide solution, EYPC/EYPG LUVs;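 further: relative to parent gramicidin A activity set to 1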
How it was run: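 Miniaturized 96-well format. LUVs with entrapped pyranine (1.0 mM) were exposed to peptide for 30 min at RT. Intensities were expressed relative to full lysis by Triton X-100 and no treatment, with control-well mean = 1.00.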

[4] = test system: P388 mouse leukemia cells; conditions: 92 h
How it was run: as §1

**Q.** Which results are given for `CC(C)C[C@@H](NC(=O)[C@H](C)NC(=O)CNC(=O)[C@@H](NC=O)C(C)C)C(=O)N[C@@H](C)C(=O)N[C@H](CC(C)C)C(=O)N[C@H](C(=O)N[C@@H](C(=O)N[C@@H](Cc1c[nH]c2ccccc12)C(=O)N[C@H](CC(C)C)C(=O)N[C@@H](Cc1c[nH]c2ccccc12)C(=O)N[C@@H](C(=O)N[C@@H](Cc1c[nH]c2ccccc12)C(=O)N[C@@H](C(=O)N[C@@H](Cc1c[nH]c2ccccc12)C(=O)NCCO)C(C)C)[C@H](C)O)C(C)C)C(C)C` [compound 65] (For-VGA[dL]A[dL]V[dV]W[dL]W[dT]W[dV]W-NHCH2CH2OH)?
**A.** antibacterial activity [1]: +; viability [2]: 100%; H+/Na+ transport activity normalized against the value of 1 (1.00) [3]: 1.08

**Q.** Which results are given for `CC(C)C[C@@H](NC(=O)[C@H](Cc1c[nH]c2ccccc12)NC(=O)[C@@H](CC(C)C)NC(=O)[C@@H](NC(=O)[C@H](NC(=O)[C@H](C)NC(=O)[C@H](NC(=O)[C@H](C)NC(=O)CNC(=O)[C@@H](NC=O)C(C)C)C(C)C)C(C)C)C(C)C)C(=O)N[C@@H](Cc1c[nH]c2ccccc12)C(=O)N[C@@H](C(=O)N[C@@H](Cc1c[nH]c2ccccc12)C(=O)N[C@@H](C(=O)N[C@@H](Cc1c[nH]c2ccccc12)C(=O)NCCO)C(C)C)[C@H](C)O` [compound 79] (For-VGA[dV]A[dV]V[dL]W[dL]W[dT]W[dV]W-NHCH2CH2OH)?
**A.** antibacterial activity [1]: ++; viability [2]: 100%; H+/Na+ transport activity normalized against the value of 1 (1.00) [3]: 1.14

**Q.** What does the source list for `CC(C)C[C@@H](NC(=O)[C@H](C)NC(=O)CNC(=O)[C@@H](NC=O)C(C)C)C(=O)N[C@@H](C)C(=O)N[C@@H](C(=O)N[C@H](C(=O)N[C@@H](C(=O)N[C@@H](Cc1c[nH]c2ccccc12)C(=O)N[C@H](CC(C)C)C(=O)N[C@@H](Cc1c[nH]c2ccccc12)C(=O)N[C@@H](C(=O)N[C@@H](Cc1c[nH]c2ccccc12)C(=O)N[C@@H](C(=O)N[C@@H](Cc1c[nH]c2ccccc12)C(=O)NCCO)C(C)C)[C@H](C)O)C(C)C)C(C)C)C(C)C` [compound 87] (For-VGA[dL]A[dV]V[dV]W[dL]W[dT]W[dV]W-NHCH2CH2OH)?
**A.** antibacterial activity [1]: ++; viability [2]: 100%; H+/Na+ transport activity normalized against the value of 1 (1.00) [3]: 1.12

**Q.** What does the source list for `CC(C)C[C@@H](NC(=O)[C@H](Cc1c[nH]c2ccccc12)NC(=O)[C@@H](CC(C)C)NC(=O)[C@@H](NC(=O)[C@H](NC(=O)[C@H](C)NC(=O)[C@H](NC(=O)[C@H](C)NC(=O)CNC(=O)[C@@H](NC=O)C(C)C)C(C)C)C(C)C)C(C)C)C(=O)N[C@@H](Cc1c[nH]c2ccccc12)C(=O)N[C@@H](C(=O)N[C@@H](Cc1c[nH]c2ccccc12)C(=O)N[C@@H](C(=O)N[C@@H](Cc1c[nH]c2ccccc12)C(=O)NCCO)C(C)C)C(C)C` [compound 100] (For-VGA[dV]A[dV]V[dL]W[dL]W[dV]W[dV]W-NHCH2CH2OH)?
**A.** antibacterial activity [1]: ++; viability [2]: 9.5%; H+/Na+ transport activity normalized against the value of 1 (1.00) [3]: 1.18

**Q.** For `CC(C)C[C@@H](NC(=O)[C@H](C)NC(=O)[C@H](NC(=O)[C@H](C)NC(=O)CNC(=O)[C@@H](NC=O)C(C)C)[C@H](C)O)C(=O)N[C@H](C(=O)N[C@H](CC(C)C)C(=O)N[C@@H](Cc1c[nH]c2ccccc12)C(=O)N[C@@H](C(=O)N[C@@H](Cc1c[nH]c2ccccc12)C(=O)N[C@H](CC(C)C)C(=O)N[C@@H](Cc1c[nH]c2ccccc12)C(=O)N[C@@H](C(=O)N[C@@H](Cc1c[nH]c2ccccc12)C(=O)NCCO)C(C)C)C(C)C)C(C)C` [compound 102] (For-VGA[dT]A[dL]V[dL]W[dV]W[dL]W[dV]W-NHCH2CH2OH), which antibacterial activity [1] is on record?
**A.** -

**Q.** What about the viability [2] of the same molecule?
**A.** 100%

**Q.** And the “H+/Na+ transport activity normalized against the value of 1 (1.00)” value (“H+/Na+ transport activity normalized” below) [3]?
**A.** 1.09

**Q.** With `CC(C)C[C@@H](NC(=O)[C@H](C)NC(=O)CNC(=O)[C@@H](NC=O)C(C)C)C(=O)N[C@@H](C)C(=O)N[C@@H](C(=O)N[C@H](C(=O)N[C@H](CC(C)C)C(=O)N[C@@H](Cc1c[nH]c2ccccc12)C(=O)N[C@H](CC(C)C)C(=O)N[C@@H](Cc1c[nH]c2ccccc12)C(=O)N[C@@H](C(=O)N[C@@H](Cc1c[nH]c2ccccc12)C(=O)N[C@@H](C(=O)N[C@@H](Cc1c[nH]c2ccccc12)C(=O)NCCO)[C@H](C)O)C(C)C)C(C)C)[C@H](C)O` [compound 113] (For-VGA[dL]A[dT]V[dL]W[dL]W[dV]W[dT]W-NHCH2CH2OH) as the molecule, how does the antibacterial activity [1] read?
**A.** -

**Q.** And the viability [2]?
**A.** 100%

**Q.** What about the “H+/Na+ transport activity normalized” value [3] of the same molecule?
**A.** 1.00

**Q.** What does the source list for `CC(C)C[C@@H](NC(=O)[C@H](C)NC(=O)[C@H](NC(=O)[C@H](C)NC(=O)CNC(=O)[C@@H](NC=O)C(C)C)C(C)C)C(=O)N[C@H](C(=O)N[C@H](CC(C)C)C(=O)N[C@@H](Cc1c[nH]c2ccccc12)C(=O)N[C@H](CC(C)C)C(=O)N[C@@H](Cc1c[nH]c2ccccc12)C(=O)N[C@H](CC(C)C)C(=O)N[C@@H](Cc1c[nH]c2ccccc12)C(=O)N[C@@H](C(=O)N[C@@H](Cc1c[nH]c2ccccc12)C(=O)NCCO)[C@H](C)O)C(C)C` [compound 129] (For-VGA[dV]A[dL]V[dL]W[dL]W[dL]W[dT]W-NHCH2CH2OH)?
**A.** antibacterial activity [1]: +; viability [2]: 100%; H+/Na+ transport activity normalized against the value of 1 (1.00) [3]: 1.05

**Q.** For `CC(C)C[C@@H](NC(=O)[C@H](C)NC(=O)[C@H](NC(=O)[C@H](C)NC(=O)CNC(=O)[C@@H](NC=O)C(C)C)C(C)C)C(=O)N[C@H](C(=O)N[C@H](CC(C)C)C(=O)N[C@@H](Cc1c[nH]c2ccccc12)C(=O)N[C@@H](C(=O)N[C@@H](Cc1c[nH]c2ccccc12)C(=O)N[C@@H](C(=O)N[C@@H](Cc1c[nH]c2ccccc12)C(=O)N[C@@H](C(=O)N[C@@H](Cc1c[nH]c2ccccc12)C(=O)NCCO)[C@H](C)O)C(C)C)C(C)C)C(C)C` [compound 13147] (For-VGA[dV]A[dL]V[dL]W[dV]W[dV]W[dT]W-NHCH2CH2OH), which antibacterial activity [1] is on record?
**A.** -

**Q.** And the cell viability/% [4]?
**A.** 94.4%

**Q.** What about the “H+/Na+ transport activity normalized” value [3] of the same molecule?
**A.** 1.09

**Q.** What does the source list for `CC(C)C[C@@H](NC(=O)[C@H](C)NC(=O)[C@H](NC(=O)[C@H](C)NC(=O)CNC(=O)[C@@H](NC=O)C(C)C)C(C)C)C(=O)N[C@H](C(=O)N[C@@H](C(=O)N[C@@H](Cc1c[nH]c2ccccc12)C(=O)N[C@@H](C(=O)N[C@@H](Cc1c[nH]c2ccccc12)C(=O)N[C@H](CC(C)C)C(=O)N[C@@H](Cc1c[nH]c2ccccc12)C(=O)N[C@@H](C(=O)N[C@@H](Cc1c[nH]c2ccccc12)C(=O)NCCO)C(C)C)C(C)C)[C@H](C)O)C(C)C` [compound 13174] (For-VGA[dV]A[dL]V[dT]W[dV]W[dL]W[dV]W-NHCH2CH2OH)?
**A.** antibacterial activity [1]: -; cell viability/% [4]: 100.0%; H+/Na+ transport activity normalized against the value of 1 (1.00) [3]: 1.18

**Q.** What does the source list for `CC(C)C[C@@H](NC(=O)[C@H](C)NC(=O)CNC(=O)[C@@H](NC=O)C(C)C)C(=O)N[C@@H](C)C(=O)N[C@@H](C(=O)N[C@H](C(=O)N[C@H](CC(C)C)C(=O)N[C@@H](Cc1c[nH]c2ccccc12)C(=O)N[C@H](CC(C)C)C(=O)N[C@@H](Cc1c[nH]c2ccccc12)C(=O)N[C@@H](C(=O)N[C@@H](Cc1c[nH]c2ccccc12)C(=O)N[C@H](CC(C)C)C(=O)N[C@@H](Cc1c[nH]c2ccccc12)C(=O)NCCO)C(C)C)C(C)C)C(C)C` [compound 13252] (For-VGA[dL]A[dV]V[dL]W[dL]W[dV]W[dL]W-NHCH2CH2OH)?
**A.** antibacterial activity [1]: -; cell viability/% [4]: 2.6%; H+/Na+ transport activity normalized against the value of 1 (1.00) [3]: 1.14

**Q.** With `CC(C)C[C@@H](NC(=O)[C@H](C)NC(=O)CNC(=O)[C@@H](NC=O)C(C)C)C(=O)N[C@@H](C)C(=O)N[C@@H](C(=O)N[C@H](C(=O)N[C@@H](C(=O)N[C@@H](Cc1c[nH]c2ccccc12)C(=O)N[C@H](CC(C)C)C(=O)N[C@@H](Cc1c[nH]c2ccccc12)C(=O)N[C@H](CC(C)C)C(=O)N[C@@H](Cc1c[nH]c2ccccc12)C(=O)N[C@@H](C(=O)N[C@@H](Cc1c[nH]c2ccccc12)C(=O)NCCO)C(C)C)[C@H](C)O)C(C)C)C(C)C` [compound 13268] (For-VGA[dL]A[dV]V[dT]W[dL]W[dL]W[dV]W-NHCH2CH2OH) as the molecule, how does the antibacterial activity [1] read?
**A.** +

**Q.** What about the cell viability/% [4] of the same molecule?
**A.** 100.0%

**Q.** What about the “H+/Na+ transport activity normalized” value [3] of the same molecule?
**A.** 1.03

**Q.** For `CC(C)C[C@@H](NC(=O)[C@H](C)NC(=O)CNC(=O)[C@@H](NC=O)C(C)C)C(=O)N[C@@H](C)C(=O)N[C@H](CC(C)C)C(=O)N[C@H](C(=O)N[C@@H](C(=O)N[C@@H](Cc1c[nH]c2ccccc12)C(=O)N[C@H](CC(C)C)C(=O)N[C@@H](Cc1c[nH]c2ccccc12)C(=O)N[C@@H](C(=O)N[C@@H](Cc1c[nH]c2ccccc12)C(=O)N[C@@H](C(=O)N[C@@H](Cc1c[nH]c2ccccc12)C(=O)NCCO)C(C)C)[C@H](C)O)C(C)C)C(C)C` [compound 13273] (For-VGA[dL]A[dL]V[dV]W[dL]W[dT]W[dV]W-NHCH2CH2OH), which antibacterial activity [1] is on record?
**A.** -

**Q.** And the cell viability/% [4]?
**A.** 100.0%

**Q.** And the “H+/Na+ transport activity normalized” value [3]?
**A.** 1.05

**Q.** Which antibacterial activity [1] does the source give for `CNC(=O)C[C@@H](NC(=O)[C@H](Cc1c[nH]c2ccccc12)NC(=O)[C@@H](CC(C)C)NC(=O)[C@H](Cc1c[nH]c2ccccc12)NC(=O)[C@H](NC(=O)[C@H](Cc1c[nH]c2ccccc12)NC(=O)[C@H](NC(=O)[C@@H](NC(=O)[C@@H](CC(C)C)NC(=O)[C@H](C)NC(=O)[C@H](NC(=O)[C@H](C)NC(=O)CNC(=O)[C@@H](NC=O)C(C)C)C(C)C)C(C)C)C(C)C)C(C)C)C(=O)N[C@@H](Cc1c[nH]c2ccccc12)C(=O)NCCO` [compound 13317] (For-VGA[dV]A[dL]V[dV]W[dV]W[dL]W[dD](NHMe)W-NHCH2CH2OH) here?
**A.** -

**Q.** And the cell viability/% [4]?
**A.** 100.0%

**Q.** What about the “H+/Na+ transport activity normalized” value [3] of the same molecule?
**A.** 1.04
